Calls of active or inactive are those of the source. No cut-off for these calls is given here.
Tests used:
KKU-M055 [1] = assay: Induction of apoptosis in human KKUM055 cells assessed as total apoptotic cells at 2 ug/ml incubated for 48 hrs by Annexin V-FITC/PI staining based flow cytometry analysis (reference value: 16.44%); format: functional; details: dose 2 µg/ml
KKU-M055 [2] = assay: Induction of apoptosis in human KKUM055 cells assessed as total apoptotic cells at 7 ug/ml incubated for 48 hrs by Annexin V-FITC/PI staining based flow cytometry analysis (reference value: 16.44%); format: functional; details: dose 7 µg/ml
[3] = Cytotoxicity against human MMNK-1 cells assessed as inhibition of cell growth incubated for 48 hrs by MTT assay; format: toxicity, cell-based; details: for IC50 at 48 h: MMNK-1 cells
KKU-M055 [4] = assay: Cytotoxicity against human KKUM055 cells assessed as inhibition of cell growth incubated for 48 hrs by MTT assay; format: functional, cell-based; details: for IC50: KKU-M055, 48 h
HeLa = assay: Cytotoxicity against human HeLa cells assessed as inhibition of cell growth incubated for 72 hrs by MTT assay; format: functional, cell-based
A549 = assay: Cytotoxicity against human A549 cells assessed as inhibition of cell growth incubated for 72 hrs by MTT assay; format: functional, cell-based; details: A549, 72 h
KKUM213 [5] = assay: Cytotoxicity against human KKUM213 cells assessed as inhibition of cell growth incubated for 48 hrs by MTT assay; format: functional, cell-based; details: KKU-213A
PC-3 = assay: Cytotoxicity against human PC-3 cells assessed as inhibition of cell growth incubated for 72 hrs by MTT assay; format: functional, cell-based; details: PC-3, 72 h
KKUM213 [6] = assay: Induction of apoptosis in human KKUM213 cells assessed as total apoptotic cells at 7 ug/ml incubated for 48 hrs by Annexin V-FITC/PI staining based flow cytometry analysis (reference value: 18.14%); format: functional, KKU-213A; details: dose 7 µg/ml
[7] = Cytotoxicity against African green monkey Vero cells assessed as inhibition of cell growth incubated for 72 hrs by MTT assay; format: toxicity, cell-based; details: African green monkey (Chlorocebus sabaeus)
KKUM213 [8] = assay: Induction of apoptosis in human KKUM213 cells assessed as total apoptotic cells at 2 ug/ml incubated for 48 hrs by Annexin V-FITC/PI staining based flow cytometry analysis (reference value: 18.14%); format: functional, KKU-213A; details: dose 2 µg/ml
KKUM213 [9] = assay: Induction of apoptosis in human KKUM213 cells assessed as total apoptotic cells at 7 ug/ml incubated for 48 hrs by Annexin V-FITC/PI staining based flow cytometry analysis (reference value: 17.61%); format: functional, KKU-213A; details: dose 7 µg/ml
KKU-M055 [10] = assay: Induction of apoptosis in human KKUM055 cells assessed as total apoptotic cells at 2 ug/ml incubated for 48 hrs by Annexin V-FITC/PI staining based flow cytometry analysis (reference value: 22.11%); format: functional; details: dose 2 µg/ml
KKU-M055 [11] = assay: Induction of apoptosis in human KKUM055 cells assessed as total apoptotic cells at 7 ug/ml incubated for 48 hrs by Annexin V-FITC/PI staining based flow cytometry analysis (reference value: 22.11%); format: functional; details: dose 7 µg/ml
KKUM213 [12] = assay: Induction of apoptosis in human KKUM213 cells assessed as total apoptotic cells at 2 ug/ml incubated for 48 hrs by Annexin V-FITC/PI staining based flow cytometry analysis (reference value: 17.61%); format: functional, KKU-213A; details: dose 2 µg/ml

Row | Compound | Activity (KKU-M055 [1]) | Activity (KKU-M055 [2]) | IC50 at 48 h [3] | IC50 (KKU-M055 [4]) | IC50 (HeLa) | IC50 (A549) | IC50 (KKUM213 [5]) | IC50 (PC-3) | Activity (KKUM213 [6]) | IC50 at 72 h [7] | Activity (KKUM213 [8]) | Activity (KKU-M055 [4]) | Activity (KKUM213 [5]) | Activity ([3]; mmnk-1, 48 h, time 48 hrs) | Activity (KKUM213 [9]) | Activity (KKU-M055 [10]) | Activity (KKU-M055 [11]) | Activity (KKUM213 [12])
1 | CCCCCCCCCCCCCCC[C@@H]1OC(=O)C=C[C@@H]1O | 59% | 86% | 57.4 µM | 25.9 µM | 3.7 µM | 3.7 µM | 17 µM | 3.7 µM | 69.22% | 3.7 µM | 28.97% | – | – | – | – | – | – | –
2 | CCCCCCCCCCCCCCC[C@@H]1C[C@@H]2C[C@@H](CC(=O)O2)O1 | – | – | – | – | 39.1 µM | 39.1 µM | – | 39.1 µM | – | 39.1 µM | – | inactive | inactive | – | – | – | – | –
3 | CCCCCCCCCCCCCCC[C@@H](O)[C@@H]1C=CC(=O)O1 | – | – | – | 26.3 µM | – | – | 51.7 µM | – | – | – | – | – | – | Non-Toxic | – | – | – | –
4 | CCCCCCCCCCCCCCC[C@H]1CC=CC(=O)O1 | – | – | 39.3 µM | 19.8 µM | 12.2 µM | 12.2 µM | 18.2 µM | 12.2 µM | – | 12.2 µM | – | – | – | – | 19.95% | 21.29% | 43.4% | 20.64%
5 | CCCCCC/C=C\CCCCCCC[C@H]1CC=CC(=O)O1 | – | – | 52.9 µM | 31 µM | 11.2 µM | 16.9 µM | 22.5 µM | 23.6 µM | – | 21.2 µM | – | – | – | – | – | – | – | –

Reference: ChEMBL document CHEMBL5532706, “Passifetilactones A-E, Fatty Acid Lactones from the Fruit and Flowers of Passiflora foetida with Cytotoxic Activity” (J Nat Prod, 2024)
